Source: patent publication US20060128015A1, “Small hepatocyte-rich colonies, process for preparing the colonies, process for maturating the colonies into liver tissue and method of estimating effects of drug by using matured small hepatocyte-rich colonies” (priority 2001, published 2006)
Like-named read-outs stand apart in the source and are kept apart here.

Experiments:
CYP2E1 = conditions: 24 hours after addition, matured hepatocytes = 100%, 0 mM gave 74.1
Experimental: (§1) About 200 to 250/cm^2 of the small hepatocyte colonies prepared in Example 2 were placed on a culture dish (diameter: 60 mm).
(§2) After the culture in a culture medium (1) (DMEM, 10% FBS, 10 mM nicotinamide, 1 mM ascorbic acid 2-phosphate, 10 ng/ml EGF, 10^−7 M dexamethasone, 0.5 μg/ml insulin, penicillin and streptomycin) for 12 to 24 hours, the culture medium was exchanged with a serum-free culture medium (2) (DMEM, 10 mM nicotinamide, 1 mM ascorbic acid 2-phosphate, 10 ng/ml EGF, 10^−7 M dexamethasone, 0.5 μg/ml insulin, penicillin, streptomycin and 1% DMSO). After the culture for additional 10 days while the culture medium was exchanged every other day, Matrigel diluted to 500 μg/ml with the culture medium was placed on the cells. 48 hours after the addition of Matrigel, the culture medium was exchanged, and the culture was continued by using DMSO-free culture medium (2) for 4 days. 6 days after the addition of Matrigel, drugs shown in the following Tables 3 to 6 were added in a concentration shown in the same Tables thereto, respectively. 24 hours after the addition of the drug, the cells were recovered.
(§3) After the proteins were separated with 10% SDS-PAGE, the intended protein was stained on the membrane by Western blot. The intensity of the band on the blot was digitized by a densitometer.
(§4) The primary antibodies used were goat anti-CYP2B 1 antibody (diluted to 1/300), goat anti-CYP3A2 antibody (diluted to 1/300), goat anti-CYP2E1 antibody (diluted to 1/1000) and goat anti-CYP4A1 antibody (diluted to 1/1000) (all bought from Daiichi Kagaku Yakuhin). The secondary antibodies were HRP-conjugated anti-goat/sheep Ig (diluted to 1/5000) bought from DAKO. The chromogenic substrate was Super Signal West Dura (chemiluminescence) purchased from Pierce.
(§5) Tables 3 to 6 show the relative activity of each enzyme as the induction capacity of each drug for the enzyme, wherein the activity of each enzyme in matured hepatocytes is defined as 100%. Pregnenolone was used in the form of a solution containing 0.5% ethanol, and clofibrate was used in the form of a solution containing 0.5% DMSO.

CYP2B1 = CYP2B1 induction capacity in matured small hepatocyte-rich colonies (Western blot); format: cell-based, rat; conditions: 24 hours after addition, matured hepatocytes = 100%, 0 mM gave 30.8
CYP3A2 = CYP3A2 induction capacity in matured small hepatocyte-rich colonies (Western blot); format: cell-based, rat; conditions: 24 hours, matured hepatocytes = 100%, control (0.5% ethanol) 94.9
Experimental: as §1, §2, §3, §4, §5

CYP4A1 = CYP4A1 induction capacity in matured small hepatocyte-rich colonies (Western blot); format: cell-based, rat; conditions: 24 hours, matured hepatocytes = 100%, control (0.5% DMSO) 74.1

In the case of `CCO` [Ethanol], the “CYP2E1 induction capacity (%)” value (CYP2E1; 250 mM) is reported as 76.5%, the “CYP2E1 induction capacity (%)” value (CYP2E1; 500 mM) is reported as 82.4% and the “CYP2E1 induction capacity (%)” value (CYP2E1; 750 mM) is reported as 98.8%. For the same compound, the “CYP2E1 induction capacity (%)” value (CYP2E1; 1000 mM) was 86.4%.

For `CCC1(c2ccccc2)C(=O)NC(=O)NC1=O` [Phenobarbital], the “CYP2B1 induction capacity (%)” value (CYP2B1; 0.75 mM) was 37.4%, the “CYP2B1 induction capacity (%)” value (CYP2B1; 1.5 mM) was 47.9% and the “CYP2B1 induction capacity (%)” value (CYP2B1; 3.0 mM) was 46.9%. For the same compound, the “CYP2B1 induction capacity (%)” value (CYP2B1; 4.5 mM) was 55.0%.

For `CC(=O)[C@H]1CC[C@H]2[C@@H]3CC=C4C[C@@H](O)CC[C@]4(C)[C@H]3CC[C@]12C` [Pregnenolone], the “CYP3A2 induction capacity (%)” value (CYP3A2; 0.5 × 10^−3 mM in 0.5% ethanol) was 115.5%, the “CYP3A2 induction capacity (%)” value (CYP3A2; 1.0 × 10^−3 mM in 0.5% ethanol) was 141.0% and the “CYP3A2 induction capacity (%)” value (CYP3A2; 2.0 × 10^−3 mM in 0.5% ethanol) was 148.1%. For the same compound, the “CYP3A2 induction capacity (%)” value (CYP3A2; 5.0 × 10^−3 mM in 0.5% ethanol) was 153.2%.

`CCOC(=O)C(C)(C)Oc1ccc(Cl)cc1` [Clofibrate] was tested, and the “CYP4A1 induction capacity (%)” value (CYP4A1; 0.1 mM in 0.5% DMSO) was 76.5%, the “CYP4A1 induction capacity (%)” value (CYP4A1; 0.25 mM in 0.5% DMSO) was 82.4% and the “CYP4A1 induction capacity (%)” value (CYP4A1; 0.5 mM in 0.5% DMSO) was 98.8%. The “CYP4A1 induction capacity (%)” value (CYP4A1; 0.75 mM in 0.5% DMSO) was 86.4%.
